Reference: US7772192B2, “Compositions and methods for treatment of disease with acetylated disaccharides” (The Regents of the University of California, priority 2003, dated 2010)

Columns and labels:
[1] = system: cell-surface sLe^X of LS180 cells; test: Flow cytometry of cell-surface sLe^X (CSLEX-1); type: cell-based, human; conditions: 50 μM
Method: Peracetylated forms of GlcNAcβ1,3Galβ-O-naphthalenemethanol (AcGnG-NM) and Galβ1,3Galβ-O-naphthalenemethanol (AcGG-NM) were prepared as described. Sarkar, et al., Carbohydr. Res., 329, 287-300, 2000. The compounds were dissolved in dimethylsulfoxide (DMSO) and added to growth medium to achieve the concentrations indicated in the figures. The supplemented medium was then exchanged for the medium in established cultures of cells in order to avoid lysis caused by adding concentrated DMSO directly to the plates. The final concentration of DMSO was adjusted to ≦0.5% (v/v). After the specified number of days, the cells were harvested with 2 mM EDTA in PBS (20 min) and used for the following experiments.
Cell Sorting. To detect the presence or absence of the relevant carbohydrate determinants, cells were stained with CSLEX-1 (anti-sLe^X, 5 μg/mL, Becton-Dickinson) or CA-19-9 ([…], 14.5 μg/mL, Chemicon) and analyzed by flow cytometry (FACScan Becton-Dickinson, Franklin Lakes, N.J.). […]
Treatment of LS180 cells with AcGnG-NM reduces cell-surface sLe^X, but not sLe^a. […] LS180 cells were grown in the presence of 50 μM AcGnG-NM, harvested with EDTA, stained with monoclonal antibodies (CSLEX-1, anti-sLe^X and CA19-9, anti-sLe^a) as indicated and analyzed by flow cytometry (Materials and Methods). […]

[2] = system: LS180 cells adhering to TNF-α activated HMVEC; test: Adhesion of tumor cells to activated human endothelial cells; type: cell-based; conditions: LS180 cells grown 5 days with disaccharide
Method: Adhesion of tumor cells to activated human endothelial cells. HMVEC were added to 96-well plates (1×10^4 cells/well) in EBM-2 media (Clonetics), and allowed to grow to confluence over 2 days. The cells were activated with TNF-α (20 ng/ml; R&D Systems) for 4 hr at 37° C. Calcein labeled tumor cells, harvested after growth for 5 days in various levels of AcGnG-NM, were added to HMVEC at 2.5×10^4 cells/well in 100 μl DMEM and allowed to settle for 20 min. The wells were washed twice with cold PBS, and the extent of binding was determined by fluorimetry. In some experiments anti-E-selectin mAb (2 μg/well) was added prior to addition of tumor cells, cells were treated with sialidase (20 mU/10^6 cells), or TNF-α was omitted.
AcGnG-NM inhibits adhesion to activated endothelia and platelets. In the circulation, tumor cells can encounter E- and P-selectins expressed on endothelial cells, P-selectin on platelets, and L-selectin on leukocytes. Since the presentation of receptors on cells may differ from their arrangement when immobilized on plastic surfaces, LS180 cells were challenged to bind to E-selectin expressed on TNF-α activated human microvascular endothelial cells (HMVEC). […] HMVEC were activated with TNF-α and overlaid with Calcein-loaded LS180 cells. The extent of adhesion was normalized to the value obtained for cells not treated with disaccharide. […]

LS180 cells = test: Cytolytic assay (51Cr release) with platelets; type: cell-based, human
mixed oligosaccharides = test: Oligosaccharide priming, [6-3H]Gal incorporation; type: cell-based
From the text: A 4-deoxy modified acetylated disaccharide inhibits sLe^X expression in the absence of oligosaccharide priming.

Blood cell counts = type: in vivo

GlcNAcβ1,3Galβ-O-naphthalenemethanol [AcGnG-NM]
cell-surface sLe^X [1]: significant inhibition | adhesion to TNF-α activated HMVEC [2]: inhibited adhesion | platelet protection from cytolysis (LS180 cells; cells pretreated with 50 μM for 6 days, mouse leukocytes and platelets): markedly reduced | cytolysis in whole human blood (LS180 cells; whole human blood, 3 hr): comparable results | incorporation of [6-^3H]Gal into mixed oligosaccharides (mixed oligosaccharides): stimulates | levels of blood cell components (Blood cell counts; in vivo): not affected | Lymphocytes (Blood cell counts; n = 13): 6.1 ± 2.1 K/μL | Neutrophils (Blood cell counts; n = 13): 1.5 ± 0.5 K/μL | Platelets (Blood cell counts; n = 13): 1031 ± 174 K/μL | Red Blood Cells (Blood cell counts; n = 13): 10.5 ± 0.9 M/μL | Total Leukocytes (Blood cell counts; n = 13): 7.8 ± 2.6 K/μL
